Results from patent US20260231939A1, “ARTHROPOD CONTROL COMPOSITIONS” (Firmenich SA, priority 2022, published 2026).
Like-named read-outs stand apart in the source and are kept apart here.

Test system: Aedes aegypti
Assay: Warm Body assay, mosquito landings on the baited warm body
Type: in vivo
Conditions: for pest or weed control at 16 µg/mL / pest or weed control at 400 µg/mL / pest or weed control at 10000 µg/mL: Aedes aegypti, read-out: Percentage of repellence of mosquitoes landing on the warm body; for mosquitoes that still land on the warm body: 10 mg/mL (1 mg absolute applied)
Experimental: The controlling effect according to the present invention was assessed using an adapted Warm Body assay as defined in Kröber T, Kessler S, Frei J, Bourquin M, Guerin P M. 2010. J Am Mosq Control Assoc. 26:381-386. In this in-vitro assay the number of mosquito landing on a warm body, simulating an attractive host treated with the tested stimuli, was measured in order to assess the repellence effect.
The published protocol has been adapted as the switch from Anopheles gambiae to Ae. aegypti led to a decrease of mosquitoes placed in the tested cage due to the size difference (i.e. 30 mosquitoes instead of 50) and to an increase of lighting since Ae. aegypti is a diurnal mosquitoes (i.e. 150 lux instead of 4 lux).
On the sandblasted glass Petri dish covering the warm body (28.3 cm^2), 100 μL of the compounds diluted at different concentrations in ethanol was applied. The number of mosquito landing on the warm body was counted for each stimulus. Number of landings on pure ethanol (solvent) control treatment was used to normalize the data and calculate the percentage of repellence.

[1] = more complex lactones (types A, B, C), 0.016 mg/mL
[2] = more complex lactones (types A, B, C), 0.4 mg/mL
[3] = more complex lactones (types A, B, C), 10 mg/mL
[4] = γ-lactones, 0.016 mg/mL in ethanol
[5] = γ-lactones, 0.4 mg/mL in ethanol
[6] = γ-lactones, 10 mg/mL in ethanol

SMILES	pest or weed control at 16 µg/mL [4] [%]	pest or weed control at 400 µg/mL [5] [%]	pest or weed control at 10000 µg/mL [6] [%]	also measured
O=C1CCC2(CCCCC2)O1 [1-oxaspiro[4.5]decan-2-one]	–	–	–	pest or weed control at 16 µg/mL [1]: 54%; pest or weed control at 400 µg/mL [2]: 79%; pest or weed control at 10000 µg/mL [3]: 100%
CCCCCC1C=CC(=O)O1 (stereo not drawn) [2-pentyl-2H-furan-5-one]	–	–	–	pest or weed control at 16 µg/mL [1]: 0%; pest or weed control at 400 µg/mL [2]: 53%; pest or weed control at 10000 µg/mL [3]: 100%
CC(C)C1OC(=O)C1(C)C (stereo not drawn) [3,3-dimethyl-4-propan-2-yloxetan-2-one]	–	–	–	pest or weed control at 16 µg/mL (β- and ε-lactones, 0.016 mg/mL): 36%; pest or weed control at 400 µg/mL (β- and ε-lactones, 0.4 mg/mL): < 40%; pest or weed control at 10000 µg/mL (β- and ε-lactones, 10 mg/mL): 100%
O=C1CCC2CCCCC2O1 (stereo not drawn) [3,4,4a,5,6,7,8,8a-octahydrochromen-2-one]	–	–	–	pest or weed control at 16 µg/mL [1]: 35%; pest or weed control at 400 µg/mL [2]: 90%; pest or weed control at 10000 µg/mL [3]: 100%
C=CC=CC1C(=O)OC1CCCCC (stereo not drawn) [3-buta-1,3-dienyl-4-pentyloxetan-2-one]	–	–	–	pest or weed control at 400 µg/mL (β- and ε-lactones, 0.4 mg/mL): > 80%
CCC=C1OC(=O)c2ccccc21 [3-propylidene-2-benzofuran-1-one]	–	–	–	pest or weed control at 16 µg/mL [1]: 83%; pest or weed control at 400 µg/mL [2]: 93%; pest or weed control at 10000 µg/mL [3]: 86%
CC1(C)CC=CC2(C)OC(=O)CC12 (stereo not drawn) [4,4,7a-trimethyl-3a,5-dihydro-3H-1-benzofuran-2-one]	–	–	–	pest or weed control at 16 µg/mL [1]: 83%; pest or weed control at 400 µg/mL [2]: 92%; pest or weed control at 10000 µg/mL [3]: 100%
CCCCCC1OC(=O)CC1C (stereo not drawn) [4-methyl-5-pentyloxolan-2-one]	–	–	–	pest or weed control at 16 µg/mL [1]: 36%; pest or weed control at 400 µg/mL [2]: 72%; pest or weed control at 10000 µg/mL [3]: 100%
CC/C=C\CC/C=C/C1CCC(=O)O1 (stereo not drawn) [5-[(1E,5Z)-octa-1,5-dienyl]oxolan-2-one]	52	65	97	–
CC/C=C/CCCCC1CCC(=O)O1 (stereo not drawn) [5-[(E)-oct-5-enyl]oxolan-2-one]	0	87	100	–
CC/C=C\CCCCC1CCC(=O)O1 (stereo not drawn) [5-[(Z)-oct-5-enyl]oxolan-2-one]	0	75	100	–
C=CCCC1CCC(=O)O1 (stereo not drawn) [5-but-3-enyloxolan-2-one]	57	75	100	–
CCCCC1CCC(=O)O1 (stereo not drawn) [5-butyloxolan-2-one]	41	44	100	–
CCC=CCCCCCCC1CCC(=O)O1 (stereo not drawn) [5-dec-7-enyloxolan-2-one]	17	47	85	–
CCCCCCCCCCC1CCC(=O)O1 (stereo not drawn) [5-decyloxolan-2-one]	2	14	60	–
CCC1CCC(=O)O1 (stereo not drawn) [5-ethyloxolan-2-one]	0	16	74	–
CCCCCCCC1=COC(=O)CC1 [5-heptyl-3,4-dihydro-2H-pyran-2-one]	–	–	–	pest or weed control at 16 µg/mL [1]: 0%; pest or weed control at 400 µg/mL [2]: 95%; pest or weed control at 10000 µg/mL [3]: 100%
CCCCCCCC1CCC(=O)O1 (stereo not drawn) [5-heptyloxolan-2-one]	15	28	70	–
CCCCC=CC1CCC(=O)O1 (stereo not drawn) [5-hex-1-enyloxolan-2-one]	46	87	95	–

SMILES	pest or weed control at 16 µg/mL [4] [%]	pest or weed control at 400 µg/mL [5] [%]	pest or weed control at 10000 µg/mL [6] [%]	also measured
CCC=CCCC1(C)CCC(=O)O1 (stereo not drawn) [5-hex-3-enyl-5-methyloxolan-2-one]	39	79	96	–
CCCCCCC1=COC(=O)CC1 [5-hexyl-3,4-dihydro-2H-pyran-2-one]	–	–	–	pest or weed control at 16 µg/mL [1]: 11%; pest or weed control at 400 µg/mL [2]: 75%; pest or weed control at 10000 µg/mL [3]: 98%
CCCCCCC1(C)CCC(=O)O1 (stereo not drawn) [5-hexyl-5-methyloxolan-2-one]	–	–	–	pest or weed control at 16 µg/mL [1]: 43%; pest or weed control at 400 µg/mL [2]: 75%; pest or weed control at 10000 µg/mL [3]: 97%
CCCCCCC1CCC(=O)O1 (stereo not drawn) [5-hexyloxolan-2-one]	0	69	92	–
CC1CCC(=O)O1 (stereo not drawn) [5-methyloxolan-2-one]	0	43	2	–
CCCCCCC=CC1CCC(=O)O1 (stereo not drawn) [5-oct-1-enyloxolan-2-one]	0	60	98	–
CCCCCC=CCC1CCC(=O)O1 (stereo not drawn) [5-oct-2-enyloxolan-2-one]	85	100	96	–
CCCCC=CCCC1CCC(=O)O1 (stereo not drawn) [5-oct-3-enyloxolan-2-one]	31	76	92	–
CC=CCCCCCC1CCC(=O)O1 (stereo not drawn) [5-oct-6-enyloxolan-2-one]	12	78	100	–
C=CCCCCCCC1CCC(=O)O1 (stereo not drawn) [5-oct-7-enyloxolan-2-one]	46	69	80	–
CCCCCCCCC1CCC(=O)O1 (stereo not drawn) [5-octyloxolan-2-one]	12	52	45	–
CCCC=CC1CCC(=O)O1 (stereo not drawn) [5-pent-1-enyloxolan-2-one]	52	79	100	–
CC=CCCC1CCC(=O)O1 (stereo not drawn) [5-pent-3-enyloxolan-2-one]	0	95	100	–
CCCCCC1=COC(=O)CC1 [5-pentyl-3,4-dihydro-2H-pyran-2-one]	–	–	–	pest or weed control at 16 µg/mL [1]: 60%; pest or weed control at 400 µg/mL [2]: 69%; pest or weed control at 10000 µg/mL [3]: 97%
CCCCCC1CCC(=O)O1 (stereo not drawn) [5-pentyloxolan-2-one]	9	56	99	–
CCCC1CCC(=O)O1 (stereo not drawn) [5-propyloxolan-2-one]	28	50	100	–
C=CC1CCCC(=O)O1 (stereo not drawn) [6-ethenyloxan-2-one]	–	–	–	mosquitoes that still land on the warm body: prevents any mosquito from landing; pest or weed control at 16 µg/mL (δ-lactones, 0.016 mg/mL): 31%; pest or weed control at 400 µg/mL (δ-lactones, 0.4 mg/mL): 30%; pest or weed control at 10000 µg/mL (δ-lactones, 10 mg/mL): 100%
CCC1CCCC(=O)O1 (stereo not drawn) [6-ethyloxan-2-one]	–	–	–	mosquitoes that still land on the warm body: > 50%; pest or weed control at 16 µg/mL (δ-lactones, 0.016 mg/mL): 0%; pest or weed control at 400 µg/mL (δ-lactones, 0.4 mg/mL): 11%; pest or weed control at 10000 µg/mL (δ-lactones, 10 mg/mL): 48%
CCC#CCCC1CCCC(=O)O1 (stereo not drawn) [6-hex-3-ynyloxan-2-one]	–	–	–	pest or weed control at 16 µg/mL (δ-lactones, 0.016 mg/mL): 0%; pest or weed control at 400 µg/mL (δ-lactones, 0.4 mg/mL): 80%; pest or weed control at 10000 µg/mL (δ-lactones, 10 mg/mL): 97%
